# Data reported in patent publication US10800792B2, “Inhibitors of Bruton's tyrosine kinase and method of their use” (JANSSEN PHARMACEUTICA NV, priority 2015, dated 2020).
# Target: unphosphorylated-BTK kinase domain (UP-BTK), GST-tagged human BTK (389-659aa) (Homo sapiens (Human), UniProt Q06187)
# Test: BTK kinase Lanthascreen binding assay
# Details: Lanthascreen tracer competition, 60 minutes incubation; pIC50 = negative log of the IC50 in molar
# Procedure, shortened: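 Lanthascreen competition binding; test compound vs fluorescent tracer on unphosphorylated BTK. Output: pIC50 (−log IC50, M).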
# Chain of unphosphorylated-BTK kinase domain (UP-BTK), GST-tagged human BTK (389-659aa) (Q06187 389-659): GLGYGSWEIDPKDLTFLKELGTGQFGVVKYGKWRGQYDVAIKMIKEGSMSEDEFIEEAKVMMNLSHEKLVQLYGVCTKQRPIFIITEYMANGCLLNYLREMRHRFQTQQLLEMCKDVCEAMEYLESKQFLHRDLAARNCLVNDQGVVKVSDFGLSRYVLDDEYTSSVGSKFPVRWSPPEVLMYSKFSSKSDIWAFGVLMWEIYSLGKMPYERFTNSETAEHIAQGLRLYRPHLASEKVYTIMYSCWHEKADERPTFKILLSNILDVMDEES
row,SMILES,BTK_I_binding pIC50
1,"Cc1c(N2C(=O)Nc3c(C(=O)N[C@@H]4CCCNC4)sc4nccc2c34)ccnc1-c1ccccc1 [Example 733, (R)-5-(3-Methyl-2-phenylpyridin-4-yl)-4-oxo-N-(piperidin-3-yl)-4,5-dihydro-3H-1-thia-3,5,8-triazaacenaphthylene-2-carboxamide]",<6
2,"Cc1cc(C(=O)Nc2cc(C(F)(F)F)ccn2)ccc1N1C(=O)Nc2c(C(=O)N[C@@H]3CCCN(C(=O)/C(C#N)=C/C4CC4)C3)sc3nccc1c23 [Example 835, (R,E)-N-(1-(2-Cyano-3-cyclopropylacryloyl)piperidin-3-yl)-5-(2-methyl-4-((4-(trifluoromethyl)pyridin-2-yl)carbamoyl)phenyl)-4-oxo-4,5-dihydro-3H-1-thia-3,5,8-triazaacenaphthylene-2-carboxamide]",8.0
3,"C=CC(=O)N1CCC[C@@H](NC(=O)c2sc3nccc4c3c2NC(=O)N4c2ccnc(-c3ccccc3)c2C)C1 (single isomer, unassigned) [Example 676, (R)—N-(1-Acryloylpiperidin-3-yl)-5-(*R)-(3-methyl-2-phenylpyridin-4-yl)-4-oxo-4,5-dihydro-3H-1-thia-3,5,8-triazaacenaphthylene-2-carboxamide]",7.6
4,"C=CC(=O)N1CC[C@@H](NC(=O)c2sc3nccc4c3c2NC(=O)N4c2ccc(Oc3ccccc3)nc2C)C1 (single isomer, unassigned) [Example 666, (R)—N-(1-Acryloylpyrrolidin-3-yl)-5-(*R)-(2-methyl-6-phenoxypyridin-3-yl)-4-oxo-4,5-dihydro-3H-1-thia-3,5,8-triazaacenaphthylene-2-carboxamide]",6.3
5,"Cc1cc(Oc2ccccc2)ccc1N1C(=O)Nc2c(C(=O)N[C@@H]3CCCN(C=O)C3)sc3nccc1c23 [Example 885, (R)—N-(1-Formylpiperidin-3-yl)-5-(2-methyl-4-phenoxyphenyl)-4-oxo-4,5-dihydro-3H-1-thia-3,5,8-triazaacenaphthylene-2-carboxamide]",7.0
6,"O=C(N[C@@H]1CCNC1)c1sc2nccc3c2c1NC(=O)N3c1ccnc(-c2ccccc2)c1 [Example 602, (R)-4-Oxo-5-(2-phenylpyridin-4-yl)-N-(pyrrolidin-3-yl)-4,5-dihydro-3H-1-thia-3,5,8-triazaacenaphthylene-2-carboxamide]",6.4
7,"C=CC(=O)N1CCC[C@@H](NC(=O)c2sc3nccc4c3c2NC(=O)N4c2ccc(O[C@H]3CCOC3)cc2C)C1 [Example 785, N—((R)-1-Acryloylpiperidin-3-yl)-5-(2-methyl-4-(((S)-tetrahydrofuran-3-yl)oxy)phenyl)-4-oxo-4,5-dihydro-3H-1-thia-3,5,8-triazaacenaphthylene-2-carboxamide]",7.1
8,"O=C(N[C@@H]1CCCNC1)c1sc2nccc3c2c1NC(=O)N3c1cccc(C2CCC2)c1 [Example 603, (R)-5-(3-Cyclobutylphenyl)-4-oxo-N-(piperidin-3-yl)-4,5-dihydro-3H-1-thia-3,5,8-triazaacenaphthylene-2-carboxamide]",6.3
9,"Cc1nc(Oc2ccccc2)cnc1N1C(=O)Nc2c(C(=O)N[C@@H]3CCCNC3)sc3nccc1c23 [Example 656, (R)-5-(3-Methyl-5-phenoxypyrazin-2-yl)-4-oxo-N-(piperidin-3-yl)-4,5-dihydro-3H-1-thia-3,5,8-triazaacenaphthylene-2-carboxamide]",6.2

# Same assay, conditions: pIC50 = negative log of the IC50 in molar; 60 minutes incubation, 50 nM Tracer 236
row,SMILES,BTK_I_binding pIC50
1,"C=CC(=O)N1CCC[C@@H](NC(=O)c2sc3nccc4c3c2NC(=O)N4c2ccc(Oc3ccccc3)c(F)c2C)C1 [Example 4, (R)—N-(1-Acryloylpiperidin-3-yl)-5-(3-fluoro-2-methyl-4-phenoxyphenyl)-4-oxo-4,5-dihydro-3H-1-thia-3,5,8-triazaacenaphthylene-2-carboxamide]",7.7
2,"C=CC(=O)N1C[C@@H](O)[C@@H](NC(=O)c2sc3nccc4c3c2NC(=O)N4c2ccc(Oc3ccccc3)cc2C)C1 [Example 58, N-((3S,4R)-1-Acryloyl-4-hydroxypyrrolidin-3-yl)-5-(2-methyl-4-phenoxyphenyl)-4-oxo-4,5-dihydro-3H-1-thia-3,5,8-triazaacenaphthylene-2-carboxamide]",7.6
3,"C=CC(=O)N1CCC[C@@H](NC(=O)c2sc3nccc4c3c2NC(=O)N4c2ccc(Oc3c(F)cccc3F)cc2C)C1 [Example 64, (R)—N-(1-Acryloylpiperidin-3-yl)-5-(4-(2,6-difluorophenoxy)-2-methylphenyl)-4-oxo-4,5-dihydro-3H-1-thia-3,5,8-triazaacenaphthylene-2-carboxamide]",7.6
4,"Cc1cc(Oc2ccccc2)ccc1N1C(=O)Nc2c(C(=O)N[C@H]3CNC[C@@H]3O)sc3nccc1c23 [Example 236, N-((3S,4S)-4-Hydroxypyrrolidin-3-yl)-5-(2-methyl-4-phenoxyphenyl)-4-oxo-4,5-dihydro-3H-1-thia-3,5,8-triazaacenaphthylene-2-carboxamide]",7.0
5,"Cc1cc(Oc2ccccc2C2CC2)ccc1N1C(=O)Nc2c(C(=O)N[C@@H]3CCCN(C)C3)sc3nccc1c23 [Example 201, (R)-5-(4-(2-Cyclopropylphenoxy)-2-methylphenyl)-N-(1-methylpiperidin-3-yl)-4-oxo-4,5-dihydro-3H-1-thia-3,5,8-triazaacenaphthylene-2-carboxamide]",6.6
6,"Cc1c(N2C(=O)Nc3c(C(=O)N[C@@H]4CCCN(C(=O)CO)C4)sc4nccc2c34)ccc(Oc2ccccc2)c1F [Example 114, (R)-5-(3-Fluoro-2-methyl-4-phenoxyphenyl)-N-(1-(2-hydroxyacetyl)piperidin-3-yl)-4-oxo-4,5-dihydro-3H-1-thia-3,5,8-triazaacenaphthylene-2-carboxamide]",7.3

# Same assay, conditions: pIC50 = negative log of the IC50 in molar; 60 minutes incubation, 50 nM Tracer 236; read-out: BTK_I_binding pIC50 (converted)
row,SMILES,IC50
1,"C=CC(=O)N1C[C@@H](O)C[C@@H](NC(=O)c2sc3nccc4c3c2NC(=O)N4c2ccc(Oc3ccccc3)cc2C)C1 [Example 13, N-((3R,5S)-1-Acryloyl-5-hydroxypiperidin-3-yl)-5-(2-methyl-4-phenoxyphenyl)-4-oxo-4,5-dihydro-3H-1-thia-3,5,8-triazaacenaphthylene-2-carboxamide]",15.8 nM

# Same assay, conditions: unphosphorylated-BTK kinase domain, 50 nM Tracer 236, 60 minutes; pIC50 = negative log of the IC50 in molar
row,SMILES,BTK_I_binding pIC50
1,"CC(C)Oc1ccc(N2C(=O)Nc3c(C(=O)N[C@@H]4CCCN(C(=O)/C(C#N)=C/C5CC5)C4)sc4nccc2c34)cc1 [Example 399, (R,E)-N-(1-(2-Cyano-3-cyclopropylacryloyl)piperidin-3-yl)-5-(4-isopropoxyphenyl)-4-oxo-4,5-dihydro-3H-1-thia-3,5,8-triazaacenaphthylene-2-carboxamide]",7.5
2,"Cc1cc(Oc2ccccc2)ccc1N1C(=O)Nc2c(C(=O)N[C@@H]3CCCN(C(=O)/C=C/CN(C)C)C3)sc3nccc1c23 [Example 371, (R,E)-N-(1-(4-(Dimethylamino)but-2-enoyl)piperidin-3-yl)-5-(2-methyl-4-phenoxyphenyl)-4-oxo-4,5-dihydro-3H-1-thia-3,5,8-triazaacenaphthylene-2-carboxamide]",7.0
3,"O=C(N[C@@H]1CCCNC1)c1sc2nccc3c2c1NC(=O)N3c1ccc(Cc2ccccc2)cc1 [Example 430, (R)-5-(4-Benzylphenyl)-4-oxo-N-(piperidin-3-yl)-4,5-dihydro-3H-1-thia-3,5,8-triazaacenaphthylene-2-carboxamide]",6.3
4,"C=CC(=O)N1CCC[C@@H](NC(=O)c2sc3nccc4c3c2NC(=O)N4c2cnc(Oc3ccccc3)nc2)C1 [Example 556, (R)—N-(1-Acryloylpiperidin-3-yl)-4-oxo-5-(2-phenoxypyrimidin-5-yl)-4,5-dihydro-3H-1-thia-3,5,8-triazaacenaphthylene-2-carboxamide]",7.5
5,"Cc1cc(OC(C)C)ccc1N1C(=O)Nc2c(C(=O)N[C@@H]3CCCN(C)C3)sc3nccc1c23 [Example 332, (R)-5-(4-Isopropoxy-2-methylphenyl)-N-(1-methylpiperidin-3-yl)-4-oxo-4,5-dihydro-3H-1-thia-3,5,8-triazaacenaphthylene-2-carboxamide]",5.5

# Same assay, conditions: unphosphorylated-BTK kinase domain, 50 nM Tracer 236, 60 minutes; pIC50 = negative log of the IC50 in molar; read-out: BTK_I_binding pIC50 (converted)
row,SMILES,IC50
1,"Cc1cc(OC(F)(F)F)ccc1N1C(=O)Nc2c(C(=O)N[C@@H]3CCCNC3)sc3nccc1c23 [Example 413, (R)-5-(2-Methyl-4-(trifluoromethoxy)phenyl)-4-oxo-N-(piperidin-3-yl)-4,5-dihydro-3H-1-thia-3,5,8-triazaacenaphthylene-2-carboxamide]",2510 nM
2,C=CC(=O)N1CC[C@@H](NC(=O)c2sc3nccc4c3c2NC(=O)N4c2ccc(Oc3ccccc3)cc2)[C@@H](O)C1 [Example 574],158 nM
3,"[2H]c1c([2H])c([2H])c(Oc2ccc(N3C(=O)Nc4c(C(=O)N[C@@H]5CCCN(C([2H])([2H])[2H])C5)sc5nccc3c45)c(C)c2)c([2H])c1[2H] [Example 380, (R)-5-(2-Methyl-4-(2,3,4,5,6-pentadeuteriophenoxy)phenyl)-N-(1-(trideuteriomethyl)piperidin-3-yl)-4-oxo-4,5-dihydro-3H-1-thia-3,5,8-triazaacenaphthylene-2-carboxamide]",158 nM

# Same assay, conditions: unphosphorylated-BTK kinase domain, 60 minutes incubation, 50 nM Tracer 236; pIC50 = negative log of the IC50 in molar
row,SMILES,BTK_I_binding pIC50
1,"Cc1cc(Oc2ccccc2)ccc1N1C(=O)Nc2c(C(=O)NC3CCN(C(=O)/C(C#N)=C/C(C)(C)C)CC3)sc3nccc1c23 [Example 921, (E)-N-(1-(2-Cyano-4,4-dimethylpent-2-enoyl)piperidin-4-yl)-5-(2-methyl-4-phenoxyphenyl)-4-oxo-4,5-dihydro-3H-1-thia-3,5,8-triazaacenaphthylene-2-carboxamide]",6.3
2,"Nc1ccc(N2C(=O)Nc3c(C(=O)N[C@@H]4CCCNC4)sc4nccc2c34)cc1 [Example 956, (R)-5-(4-Aminophenyl)-4-oxo-N-(piperidin-3-yl)-4,5-dihydro-3H-1-thia-3,5,8-triazaacenaphthylene-2-carboxamide]",<5
